Measured values as given in PubChem BioAssay AID328 (DTP/NCI, 2004).
Several values for one entry are separate records, joined by “and”; a condition that tells them apart may be missing. Equal values may be shown once. Toxic doses and inconclusive results are not listed.

Test system: BDF1 mice, P388 leukemia ip, median survival T/C
Test: NCI In Vivo Anticancer Drug Screen. Data for tumor model P388 Leukemia (intraperitoneal) in B6D2F1 (BDF1) mice
Conditions: endpoint: median survival time, higher = longer survival
Method in brief: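 Steps: implant the tumour, treat one group with compound and another with vehicle, record survival, then divide treated by control.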

[1] = dose: 8.0 mg/kg/injection, schedule: Q01DX009 (ip), vehicle: saline with Tween-80
[2] = dose: 100.0 mg/kg/injection, schedule: Q01DX009 (ip), vehicle: saline with Tween-80
[3] = dose: 200.0 mg/kg/injection, schedule: Q01DX009 (ip), vehicle: saline with Tween-80
[4] = dose: 12.5 mg/kg/injection, schedule: Q01DX009 (ip), vehicle: saline with Tween-80
[5] = dose: 50.0 mg/kg/injection, schedule: Q01DX009 (ip), vehicle: saline with Tween-80

With `O=C1NC(Cc2ccc(N(CCCl)CCCl)cc2)C(=O)O1` (configuration not stated) the T/C (dose: 0.06 mg/kg/injection, schedule: Q01DX009 (ip), vehicle: saline with Tween-80) was 104 % of control, the T/C (dose: 0.12 mg/kg/injection, schedule: Q01DX009 (ip), vehicle: saline with Tween-80) was 150 % of control and the T/C (dose: 0.2 mg/kg/injection, schedule: Q04DX003 (ip), vehicle: saline with Tween-80) was 100 % of control. The T/C (dose: 0.25 mg/kg/injection, schedule: Q01DX009 (ip), vehicle: saline with Tween-80) was 159 % of control, the T/C (dose: 0.3 mg/kg/injection, schedule: Q04DX003 (ip), vehicle: saline with Tween-80) was 112 % of control and the T/C (dose: 0.5 mg/kg/injection, schedule: Q01DX009 (ip), vehicle: saline with Tween-80) was 168 % of control. The T/C (dose: 0.5 mg/kg/injection, schedule: Q04DX003 (ip), vehicle: saline with Tween-80) was 112 % of control, the T/C (dose: 0.8 mg/kg/injection, schedule: Q04DX003 (ip), vehicle: saline with Tween-80) was 154 % of control and the T/C (dose: 1.0 mg/kg/injection, schedule: Q04DX003 (ip), vehicle: saline with Tween-80) was 163 % of control. The T/C (dose: 1.3 mg/kg/injection, schedule: Q04DX003 (ip), vehicle: saline with Tween-80) was 159 % of control, the T/C (dose: 2.0 mg/kg/injection, schedule: Q01DX009 (ip), vehicle: saline with Tween-80) was 230 % of control and the T/C (dose: 2.0 mg/kg/injection, schedule: Q04DX003 (ip), vehicle: saline with Tween-80) was 168 % of control and 172 % of control. For the same compound, the T/C (dose: 3.0 mg/kg/injection, schedule: Q04DX003 (ip), vehicle: saline with Tween-80) was 200 % of control, the T/C (dose: 3.4 mg/kg/injection, schedule: Q04DX003 (ip), vehicle: saline with Tween-80) was 150 % of control and the T/C (dose: 4.5 mg/kg/injection, schedule: Q04DX003 (ip), vehicle: saline with Tween-80) was 222 % of control. For the same compound, the T/C (dose: 5.2 mg/kg/injection, schedule: Q04DX003 (ip), vehicle: saline with Tween-80) was 154 % of control, the T/C (dose: 5.5 mg/kg/injection, schedule: Q01DX009 (ip), vehicle: saline with Tween-80) was 230 % of control and the T/C [1] was 230 % of control. For the same compound, the T/C (dose: 8.0 mg/kg/injection, schedule: Q04DX003 (ip), vehicle: saline with Tween-80) was 195 % of control, the T/C (dose: 12.0 mg/kg/injection, schedule: Q01DX009 (ip), vehicle: saline with Tween-80) was 115 % of control and the T/C (dose: 27.0 mg/kg/injection, schedule: Q04DX003 (ip), vehicle: saline with Tween-80) was 272 % of control (2×) and 207 % of control. For the same compound, the T/C (dose: 40.0 mg/kg/injection, schedule: Q04DX003 (ip), vehicle: saline with Tween-80) was 157 % of control and the T/C (dose: 60.0 mg/kg/injection, schedule: Q04DX003 (ip), vehicle: saline with Tween-80) was 119 % of control.

In the case of `CC(=O)OCCCc1ccccc1`, the T/C (dose: 100.0 mg/kg/injection, schedule: Q01DX009 (ip), vehicle: Klucel (hydroxypropylcellulose) (HPC)) is reported as 109 % of control, the T/C (dose: 100.0 mg/kg/injection, schedule: Q04DX003 (ip), vehicle: Klucel (hydroxypropylcellulose) (HPC)) is reported as 110 % of control and the T/C (dose: 200.0 mg/kg/injection, schedule: Q01DX009 (ip), vehicle: Klucel (hydroxypropylcellulose) (HPC)) is reported as 104 % of control. The T/C (dose: 200.0 mg/kg/injection, schedule: Q04DX003 (ip), vehicle: Klucel (hydroxypropylcellulose) (HPC)) was 100 % of control, the T/C (dose: 400.0 mg/kg/injection, schedule: Q01DX009 (ip), vehicle: Klucel (hydroxypropylcellulose) (HPC)) was 95 % of control and the T/C (dose: 400.0 mg/kg/injection, schedule: Q04DX003 (ip), vehicle: Klucel (hydroxypropylcellulose) (HPC)) was 110 % of control.

`Cc1ccc(C)c2c1CCC2C` (configuration not stated) was tested, and the T/C [2] was 123 % of control and the T/C [3] was 96 % of control.

With `Cc1cc(N(CCCl)CCCl)c(C)cc1NC(=O)c1ccccc1` the T/C [4] was 195 % of control, the T/C (dose: 16.5 mg/kg/injection, schedule: Q04DX003 (ip), vehicle: Klucel (hydroxypropylcellulose) (HPC)) was 190 % of control and the T/C (dose: 25.0 mg/kg/injection, schedule: Q04DX003 (ip), vehicle: Klucel (hydroxypropylcellulose) (HPC)) was 118 % of control. The T/C (dose: 37.5 mg/kg/injection, schedule: Q04DX003 (ip), vehicle: Klucel (hydroxypropylcellulose) (HPC)) was 113 % of control.

`Nc1cccc(OCCCCCOc2cccc(N)c2)c1` was tested, and the T/C (dose: 12.5 mg/kg/injection, schedule: Q01DX009 (ip), vehicle: Klucel (hydroxypropylcellulose) (HPC)) was 96 % of control, the T/C (dose: 25.0 mg/kg/injection, schedule: Q01DX009 (ip), vehicle: Klucel (hydroxypropylcellulose) (HPC)) was 108 % of control and the T/C (dose: 50.0 mg/kg/injection, schedule: Q01DX009 (ip), vehicle: Klucel (hydroxypropylcellulose) (HPC)) was 94 % of control.

`COC1(F)C2(Cl)C=C(c3ccccc3)C1(Cl)C(Cl)=C2Cl` (configuration not stated) was tested, and the T/C (dose: 100.0 mg/kg/injection, schedule: Q04DX002 (ip), vehicle: saline with Tween-80) was 101 % of control, the T/C (dose: 200.0 mg/kg/injection, schedule: Q04DX002 (ip), vehicle: saline with Tween-80) was 111 % of control and the T/C (dose: 400.0 mg/kg/injection, schedule: Q04DX002 (ip), vehicle: saline with Tween-80) was 100 % of control.

For `CN(CCS)C(=N)N`, the T/C (dose: 3.13 mg/kg/injection, schedule: Q01DX009 (ip), vehicle: saline with Tween-80) was 112 % of control, the T/C (dose: 6.25 mg/kg/injection, schedule: Q01DX009 (ip), vehicle: saline with Tween-80) was 99 % of control and the T/C [4] was 111 % of control. For the same compound, the T/C (dose: 25.0 mg/kg/injection, schedule: Q01DX009 (ip), vehicle: saline with Tween-80) was 104 % of control.

In the case of `COc1cc(NCCN2CCN(CCNc3cc(OC)cc4cccnc34)CC2)c2ncccc2c1`, the T/C [5] is reported as 113 % of control, the T/C [2] is reported as 110 % of control and the T/C [3] is reported as 94 % of control.

With `CN(Cc1cnc2nc(N)nc(N)c2n1)c1c(Cl)cc(C(=O)NC(CCC(=O)O)C(=O)O)cc1Br` (configuration not stated) the T/C (dose: 0.13 mg/kg/injection, schedule: Q04DX003 (ip), vehicle: saline) was 108 % of control, the T/C (dose: 0.19 mg/kg/injection, schedule: Q04DX003 (ip), vehicle: saline) was 116 % of control and the T/C (dose: 1.1 mg/kg/injection, schedule: Q04DX003 (ip), vehicle: saline) was 150 % of control. The T/C (dose: 6.3 mg/kg/injection, schedule: Q04DX003 (ip), vehicle: saline) was 150 % of control, the T/C (dose: 25.0 mg/kg/injection, schedule: Q01DX009 (ip), vehicle: saline) was 213 % of control and the T/C (dose: 50.0 mg/kg/injection, schedule: Q01DX009 (ip), vehicle: saline) was 261 % of control. For the same compound, the T/C [2] was 173 % of control, the T/C (dose: 100.0 mg/kg/injection, schedule: Q01DX009 (ip), vehicle: saline) was 271 % of control and the T/C (dose: 115.0 mg/kg/injection, schedule: Q04DX003 (ip), vehicle: saline) was 236 % of control. The T/C (dose: 175.0 mg/kg/injection, schedule: Q04DX003 (ip), vehicle: saline) was 272 % of control, the T/C [3] was 182 % of control and the T/C (dose: 264.0 mg/kg/injection, schedule: Q04DX003 (ip), vehicle: saline) was 254 % of control. The T/C (dose: 400.0 mg/kg/injection, schedule: Q04DX003 (ip), vehicle: saline) was 272 % of control and the T/C (dose: 600.0 mg/kg/injection, schedule: Q04DX003 (ip), vehicle: saline) was 90 % of control.

With `Brc1cnn2c1NCC2` the T/C (dose: 12.5 mg/kg/injection, schedule: Q01DX009 (ip), vehicle: water) was 100 % of control, the T/C (dose: 25.0 mg/kg/injection, schedule: Q01DX009 (ip), vehicle: water) was 93 % of control and the T/C (dose: 25.0 mg/kg/injection, schedule: Q04DX003 (ip), vehicle: water) was 109 % of control and 114 % of control. For the same compound, the T/C (dose: 50.0 mg/kg/injection, schedule: Q01DX009 (ip), vehicle: water) was 98 % of control, the T/C (dose: 50.0 mg/kg/injection, schedule: Q04DX003 (ip), vehicle: water) was 95 % of control and 118 % of control and the T/C (dose: 100.0 mg/kg/injection, schedule: Q01DX009 (ip), vehicle: water) was 97 % of control. For the same compound, the T/C (dose: 100.0 mg/kg/injection, schedule: Q04DX003 (ip), vehicle: water) was 95 % of control and 114 % of control, the T/C (dose: 200.0 mg/kg/injection, schedule: Q01DX009 (ip), vehicle: water) was 93 % of control and the T/C (dose: 200.0 mg/kg/injection, schedule: Q04DX003 (ip), vehicle: water) was 93 % of control.

In the case of `FC(F)c1nc2nc(Cl)c(Cl)nc2[nH]1`, the T/C [4] is reported as 110 % of control, the T/C [5] is reported as 120 % of control and the T/C (dose: 50.0 mg/kg/injection, schedule: Q04DX003 (ip), vehicle: saline with Tween-80) is reported as 100 % of control. For the same compound, the T/C (dose: 75.0 mg/kg/injection, schedule: Q01DX009 (ip), vehicle: saline with Tween-80) was 103 % of control and the T/C (dose: 100.0 mg/kg/injection, schedule: Q04DX003 (ip), vehicle: saline with Tween-80) was 109 % of control.

With `S=c1[nH]ccn2cnnc12` the T/C (dose: 100.0 mg/kg/injection, schedule: Q01DX001 (ip), vehicle: saline with Tween-80) was 88 % of control, the T/C (dose: 200.0 mg/kg/injection, schedule: Q01DX001 (ip), vehicle: saline with Tween-80) was 106 % of control and the T/C (dose: 400.0 mg/kg/injection, schedule: Q01DX001 (ip), vehicle: saline with Tween-80) was 100 % of control.

For `O.O.O.O.O=C([OH2+])CN=Cc1ccccc1O.O=C([OH2+])CN=Cc1ccccc1O.[Ni].[Ni]`, the T/C (dose: 4.0 mg/kg/injection, schedule: Q01DX009 (ip), vehicle: saline with Tween-80) was 100 % of control, the T/C (dose: 6.25 mg/kg/injection, schedule: Q04DX003 (ip), vehicle: saline with Tween-80) was 113 % of control and the T/C [1] was 115 % of control.
